Results: patent US11352607B2, “Genomic engineering of pluripotent cells” (Fate Therapeutics, Inc., priority 2015, dated 2022)

Key:
[1] = tested on: CAG-C38 iCasp9 iPSC clone with sr39TK at H11 locus; assay: Dual suicide gene safe guard system: AP1903 and GCV treatment in vitro; assay type: cell-based, human; conditions: 10 nM AP1903 two days; 25 μg/mL GCV nine days
Text: In addition to CAG-iCasp9 integrated into AAVS1 locus, CAG-sr39TK was integrated into H11 safe harbor in CAG-C38 clonal iPSC using targeted insertion method described herein.

iCasp9-integrated iPSCs = assay: AP1903-induced cell death of iCasp9-targeted hiPSCs (7AAD staining, flow cytometry); assay type: cell-based, human; conditions: 24 hrs
Procedure: The sorted GFP (neg), GFP (low) and GFP (hi) populations were expanded, and then were subjected to AP1903 treatment (10 nM or 100 nM), or DMSO as control, for 24 hrs. The treated cells were harvested and stained with 7AAD and analyzed by flow cytometry. The 7AAD negative cells (presumably live cells) percentage were plotted for each treatment.
Expanded puro-resistant iPSCs were then subjected to AP1903 (or DMSO control) treatment for 24 hrs. The treated cells were harvested and stained with 7AAD and analyzed by flow cytometry. The 7AAD negative cells, i.e., live cells, percentage were plotted for each treatment.

293T cells = assay: AP1903-induced cell death of iCasp9-targeted 293T cells (7AAD); assay type: cell-based; conditions: 10 nM or 120 nM, 24 hrs; 293T cells with CMV-driven iCasp9 at AAVS1
Text: The chemical inducer of dimerization (CID; AP1903) was purchased from Medchemexpress (Monmouth Junction, N.J.). Twenty-four hours after CID exposure, the cells were harvested and stained with 7-amino actinomycin D (7-AAD) according to the manufacturer's instruction (BD Biosciences). The percentage of 7-AAD positive cells were quantified as dead cells by flow cytometry (Guava, EMD Millipore, Billerica, Mass.) and analyzed with flowjo software.
A donor construct encompassing CMV-driven iCasp9 (AAVS1-G1.0) was designed to target the AAVS1 locus (FIG. 1A) and to integrate the Casp9 suicide gene to 293T cells. The donor construct also comprise GFP and puromycin genes, the expression of which are driven by AAVS1 endogenous promoter once the targeted insertion takes place (FIG. 1A). 293T cells were transfected with ZFNs specific to AAVS1 locus and the donor construct AAVS1-G1.0. Three days after transfection, the puromycin selection was started and continued for 12 days. The puro-selected population was analyzed by flow cytometry for GFP expression, and a range of GFP expression levels were observed. It was observed that about 82% of the puro-selected cell population expressed GFP (FIG. 1B). […] The treated cells were then harvested and stained with 7AAD, which selectively stains membrane-compromised dying cells, and analyzed by flow cytometry. […]

| SMILES | inducible killing of CAG-C38 iCasp9 clone with sr39TK at H11 [1] | cell death mediated by AP1903 (iCasp9-integrated iPSCs; 10 nM or 100 nM, hiPSCs with CMV-driven iCasp9, GFP (neg), GFP (low), GFP (hi) populations) | cell death mediated by AP1903 (iCasp9-integrated iPSCs; hiPSCs with iCasp9 under endogenous AAVS1 promoter) | cell death post AP1903 treatment (293T cells) |
| --- | --- | --- | --- | --- |
| CC[C@H](C(=O)N1CCCC[C@H]1C(=O)O[C@H](CCc1ccc(OC)c(OC)c1)c1cccc(OCC(=O)NCCNC(=O)COc2cccc([C@@H](CCc3ccc(OC)c(OC)c3)OC(=O)[C@@H]3CCCCN3C(=O)[C@@H](CC)c3cc(OC)c(OC)c(OC)c3)c2)c1)c1cc(OC)c(OC)c(OC)c1 [AP1903] | inducible killing of most cells but rare cells remained | not detected | not detected | Significant cell death was detected |
| Nc1nc(O)c2ncn(COC(CO)CO)c2n1 [GCV, Ganciclovir] | expanded GCV-refractory cells | – | – | – |
